Reference: ChEMBL document CHEMBL5331085 (Eur J Med Chem, 2023)
≈ marks a conversion by molar mass, not a printed value. Where “and” joins values, the source holds several entries; their conditions need not be identical. Equal values may be shown once. Calls of active or inactive are those of the source. The rule behind the calls is not given here.

What was measured:
[1] = test system: Staphylococcus aureus; assay: Antimicrobial activity against methicillin-resistant Staphylococcus aureus incubated for 16 to 20 hrs by CLSI based broth dilution method; assay type: functional; details: time 16-20 hrs
[2] = test system: Staphylococcus aureus; assay: Antimicrobial activity against Staphylococcus aureus; assay type: functional
[3] = Cytotoxicity against human WPMY-1 cells assessed as inhibition of cell growth incubated for 72 hrs by CCK-8 assay; assay type: toxicity, cell-based
[4] = Cytotoxicity against HUVEC cells assessed as inhibition of cell growth incubated for 72 hrs by CCK-8 assay; assay type: toxicity, cell-based; details: human
[5] = Cytotoxicity against human BGC cells assessed as inhibition of cell growth incubated for 72 hrs by CCK-8 assay; assay type: toxicity, cell-based
[6] = test system: Staphylococcus aureus; assay: Induction of drug resistance in Staphylococcus aureus ATCC 29213 at 0.1 times MIC measured after 20 passages; assay type: functional
[7] = (§1) Hemolytic activity in sheep erythrocytes incubated for 1 hr by absorbance based analysis; assay type: toxicity, cell-based, Ovis aries, Erythrocyte; details: sheep erythrocytes
[8] = test system: Enterococcus faecium; assay: Antimicrobial activity against Enterococcus faecium ATCC 29212 incubated for 16 to 20 hrs by CLSI based broth dilution method; assay type: functional
[9] = test system: Stenotrophomonas maltophilia; assay: Antimicrobial activity against Stenotrophomonas maltophilia ATCC 17808 incubated for 16 to 20 hrs by CLSI based broth dilution method; assay type: functional; details: time 16-20 hrs
[10] = test system: Escherichia coli; assay: Antimicrobial activity against Escherichia coli ATCC 25922 incubated for 16 to 20 hrs by CLSI based broth dilution method; assay type: functional; details: time 16-20 hrs
[11] = test system: Staphylococcus aureus; assay: Antimicrobial activity against Staphylococcus aureus ATCC 29213 incubated for 16 to 20 hrs by CLSI based broth dilution method; assay type: functional; details: time 16-20 hrs
[12] = test system: Erythrocyte; assay: as §1; assay type: toxicity, cell-based, Ovis aries; details: erythrocyte, 1 h
[13] = test system: Staphylococcus aureus; assay: Induction of ROS accumulation in Staphylococcus aureus ATCC 29213 at 0.25 to 0.5 ug/ml incubated for 30 mins by DCF-DA staining based fluorescence analysis; assay type: functional, organism-based; details: dose 0.25-0.5 µg/ml
[14] = test system: Staphylococcus aureus; assay: Bactericidal activity against Staphylococcus aureus ATCC 29213 assessed as fold increase in MIC incubated for 16 to 20 hrs in presence of 50% serum by broth dilution method relative to control; assay type: functional; details: time 16-20 hrs
[15] = test system: Staphylococcus aureus; assay: Induction of ROS accumulation in Staphylococcus aureus ATCC 29213 at 1 ug/ml incubated for 30 mins by DCF-DA staining based fluorescence analysis; assay type: functional, organism-based; details: dose 1.0 µg/ml
[16] = test system: Cell membrane; assay: Induction of membrane depolarization in Staphylococcus aureus ATCC 29213 assessed as increase in fluorescence intensity at 16 ug/ml treated for 6 mins prior to compound addition and further measured for 20 mins by DiSC3-5 dye based fluorescence analysis; details: dose 16.0 µg/ml
[17] = test system: Staphylococcus aureus; assay: Induction of ROS accumulation in Staphylococcus aureus ATCC 29213 at 1 ug/ml incubated for 30 mins in presence of N-acetyl-L-cysteine by DCF-DA staining based fluorescence analysis; assay type: functional, organism-based; details: dose 1.0 µg/ml
[18] = test system: Staphylococcus aureus; assay: Bactericidal activity against Staphylococcus aureus ATCC 29213 assessed as fold increase in MIC incubated for 16 to 20 hrs in presence of 50% plasma by broth dilution method relative to control; assay type: functional; details: time 16-20 hrs
[19] = Induction of drug resistance in Staphylococcus aureus ATCC 29213 assessed as test compound MIC at sub-MIC measured after 20 days (reference value: 1 ug/ml); assay type: functional; details: ATCC 29213, 480 h, time 20 day
[20] = Enterococcus faecium, ATCC 29212, time 16-20 hrs, read-out: MIC
[21] = Stenotrophomonas maltophilia, ATCC 17808, read-out: MIC
[22] = Escherichia coli, ATCC 25922, read-out: MIC
[23] = Staphylococcus aureus, ATCC 29213, read-out: MIC

| SMILES | HC50 at 1 h [7] [µg/mL] | MIC [8, 20] [µg/mL] | MIC [9, 21] [µg/mL] | MIC [10, 22] [µg/mL] | MIC [11, 23] [µg/mL] | also measured |
| --- | --- | --- | --- | --- | --- | --- |
| CC[C@H]1OC(=O)[C@H](C)[C@@H](O[C@H]2C[C@@](C)(OC)[C@@H](O)[C@H](C)O2)[C@H](C)[C@@H](O[C@@H]2O[C@H](C)C[C@H](N(C)C)[C@H]2O)[C@](C)(O)C[C@@H](C)C(=O)[C@H](C)[C@@H](O)[C@]1(C)O [ERYTHROMYCIN] |  |  |  |  |  | MIC90 [1]: 128 µg/mL (≈ 174 µM) |
| CCCCCCN(CCCOc1ccc(-c2ccc(OCCCN(CCCCCC)C(=O)[C@@H](N)CCCCN)cc2)cc1)C(=O)[C@@H](N)CCCCN.Cl.Cl.Cl.Cl |  |  |  |  |  | MIC [2]: 1 µg/mL |
| C=C[C@]1(C)C[C@@H](OC(=O)CS[C@@H]2C[C@H]3CC[C@@H](C2)N3C)[C@]2(C)[C@H](C)CC[C@]3(CCC(=O)[C@H]32)[C@@H](C)[C@@H]1O [RETAPAMULIN] |  |  |  |  |  | IC50 at 72 h [3]: 13.9 µg/mL (≈ 26.8 µM); IC50 at 72 h [4]: 25.5 µg/mL (≈ 49.2 µM); IC50 at 72 h [5]: 16 µg/mL (≈ 30.9 µM) |
| COc1cccc(OC)c1C(=O)N[C@@H]1C(=O)N2[C@@H]1SC(C)(C)[C@@H]2C(=O)O |  |  |  |  |  | Activity [6]: Active |
| CCCCCCCC[N+](C)(C)CCCOc1ccccc1-c1ccccc1OCCC[N+](C)(C)CCCCCCCC.[Br-].[Br-] | 109 | 0.5 | 2 | 1 | 1 |  |
| CCCCCC[N+](C)(C)CCCOc1ccccc1-c1ccccc1OCCC[N+](C)(C)CCCCCC.[Br-].[Br-] | > 1280 | 16 | 128 | 128 | 2 |  |
| CCCCCCCC[N+](C)(C)CCCOc1ccc2ccccc2c1-c1c(OCCC[N+](C)(C)CCCCCCCC)ccc2ccccc12.[Br-].[Br-] | 28 | 2 | 2 | 2 | 2 | HC50 [12]: 20 µg/mL; MIC ([8]; time 16-20 hrs): 2 µg/mL; MIC [9]: 2 µg/mL; MIC [10]: 2 µg/mL; MIC [11]: 2 µg/mL |
| CCCCCCCCCC[N+](C)(C)CCCOc1ccc2ccccc2c1-c1c(OCCC[N+](C)(C)CCCCCCCCCC)ccc2ccccc12.[Br-].[Br-] | 228 | 16 | 16 | 16 | 16 | HC50 [12]: 371 µg/mL; MIC ([8]; time 16-20 hrs): 16 µg/mL; MIC [9]: 16 µg/mL; MIC [10]: 16 µg/mL; MIC [11]: 16 µg/mL |
| CCCCCCCCCC[N+](C)(C)CCCOc1ccccc1-c1ccccc1OCCC[N+](C)(C)CCCCCCCCCC.[Br-].[Br-] | 10 | 1 | 4 | 4 | 2 |  |
| CC[C@H](C)[C@H](NC(=O)CN)C(=O)NCC(=O)N[C@@H](C)C(=O)N[C@H](C(=O)N[C@@H](CC(C)C)C(=O)N[C@@H](CCCCN)C(=O)N[C@H](C(=O)N[C@@H](CC(C)C)C(=O)N[C@H](C(=O)N[C@H](C(=O)NCC(=O)N[C@@H](CC(C)C)C(=O)N1CCC[C@H]1C(=O)N[C@@H](C)C(=O)N[C@@H](CC(C)C)C(=O)N[C@H](C(=O)N[C@@H](CO)C(=O)N[C@@H](Cc1c[nH]c2ccccc12)C(=O)N[C@H](C(=O)N[C@@H](CCCCN)C(=O)N[C@@H](CCCNC(=N)N)C(=O)N[C@@H](CCCCN)C(=O)N[C@@H](CCCNC(=N)N)C(=O)N[C@@H](CCC(N)=O)C(=O)N[C@@H](CCC(N)=O)C(N)=O)[C@@H](C)CC)[C@@H](C)CC)[C@@H](C)O)[C@@H](C)O)C(C)C)C(C)C [MELITTIN] |  | 2 (≈ 0.703 µM) | 8 (≈ 2.81 µM) |  |  | Activity [13]: inactive; fold change (FC) [14]: >32; Activity [15]: Active; Activity [16]: Active; IC50 at 72 h [4]: 5.8 µg/mL (≈ 2.04 µM); Activity [17]: inactive; fold change (FC) [18]: >32 |
| CCCCCCCCCC[N+](C)(C)CCCOc1cccc(-c2cccc(OCCC[N+](C)(C)CCCCCCCCCC)c2)c1.[Br-].[Br-] | 19 | 0.5 | 2 | 2 | 1 |  |
| CCCCCCCC[N+](C)(C)CCCOc1cccc(-c2cccc(OCCC[N+](C)(C)CCCCCCCC)c2)c1.[Br-].[Br-] | 145 | 0.5 | 2 | 1 | 2 |  |
| C[C@H]1c2cccc(O)c2C(=O)C2=C(O)[C@]3(O)C(=O)C(C(N)=O)=C(O)[C@@H](N(C)C)[C@@H]3[C@@H](O)[C@@H]21.O [DOXYCYCLINE] |  |  |  |  |  | MIC90 [1]: 8 µg/mL |
| CCn1cc(C(=O)O)c(=O)c2cc(F)c(N3CCNCC3)cc21 [NORFLOXACIN] |  |  |  |  |  | MIC [19]: 64 µg/mL |
| CCCCCC[N+](C)(C)CCCOc1ccc2ccccc2c1-c1c(OCCC[N+](C)(C)CCCCCC)ccc2ccccc12.[Br-].[Br-] |  | 4 | 8 | 8 | 8 | HC50 [12]: 405 µg/mL and 868 µg/mL; MIC ([8]; time 16-20 hrs): 8 µg/mL; MIC [9]: 8 µg/mL; MIC [10]: 8 µg/mL; MIC [11]: 8 µg/mL |
